Data taken from patent US5399696A, “Isoquinolinyl compounds which are intermediates” (Eli Lilly and Company, priority 1993, dated 1995).

Assays:
AMPA receptor [1] = assay: Radioligand binding: [^3 H]AMPA binding with crude membranes of rat forebrain
Protocol: (§1) The formula I compounds were tested for their ability to inhibit NMDA, AMPA, and kainic acid receptor binding to rat membranes in a radioligand binding assay using [^3 H]CGS19755, [^3 H]AMPA, and [^3 H]KA. For all radioligand binding assays, male Sprague-Dawley rats were used. […] Non-specific binding was determined using 10 μM L-glutamate. Samples were incubated in an ice-bath for 30 minutes, and bound ligand was separated from the free ligand by rapid filtration through WHATMAN GF/B glass fiber filters. Murphy et al, British J. Pharmacol., 95, 932-938 (1988). Kainate binding was performed using washed synaptosomal membranes from the rat forebrain as described by Simon et al. Simon et al, J. Neurochem., 26, 141-147 (1976). Tritiated kainate (5 nM) was added to 50 mM Tris-HCl buffer (pH 7.4 at 4° C.) containing 200-300 μg/ml of tissue protein. Samples were incubated for 30 minutes in an ice-bath, then rapidly filtered using a Brandel cell harvester and WHATMAN GF/C filters. Filters were washed twice with 3 ml of cold buffer. Non-specific binding was determined using 100 μM non-labeled kainate. The binding of [^3 H]AMPA (5 nM) was conducted with crude membranes of rat forebrain in the presence of 100 mM KSCN as described by Nielson et al. Nielson et al, Eur. J. Med. Chem. Chim. Ther., 21, 433-437 (1986). Non-specific binding was determined with 10 μM non-labeled AMPA. The concentration of the formula I compound that inhibited 50% binding (IC50, mean ±standard error, n=3) as calculated by linear regression of displacement data transformed to the Hill equation as described by Bennett. Bennett, Neurotransmitter Receptor Binding, 57-90 (1978).

NMDA receptor [2] = assay: Radioligand binding: displacement of [^3 H]CGS19755 from synaptosomal membranes of rat forebrain (NMDA receptor affinity); settings: [^3 H]CGS19755 10 nM, mean ± standard error (n = 3), values marked ^c single experiment
Protocol: as §1

[3] = target: kainic acid (KA) receptor; assay: Radioligand binding: tritiated kainate binding with washed synaptosomal membranes from the rat forebrain; settings: tritiated kainate 5 nM, pH 7.4, mean ± standard error (n = 3), values marked ^c single experiment
Protocol: as §1

[4] = target: kainic acid (KA) receptor; assay: Antagonism of kainate-induced depolarization of rat cortical wedges; type: cell-based; settings: kainate 10 μM, mean ± standard error (n = 3)
Protocol: (§2) The depolarization of rat cortical wedges was used to test the selectivity and potency of the formula I compounds as AMPA antagonists using a technique similar to that described by Harrison and Simmonds. Harrison and Simmonds, Bri. J. Pharmacol., 84, 381-391 (1984). Generally, 4-ml aliquots of NMDA (40 μM), AMPA (40 μM), and kainate (10 μM) were superfused (2 ml/min.) on the grey matter at intervals of 15-20 minutes until stable responses were attained. The tissue was then exposed for 15 minutes to various concentrations of the formula I compounds before retesting the agonists. The IC50 values were calculated from linear regression of log dose-response curves, each point the mean of at least three observations on separate slices from more than one animal.

NMDA receptor [5] = assay: Antagonism of NMDA-induced depolarization of rat cortical wedges; type: cell-based; settings: NMDA 40 μM, mean ± standard error (n = 3), read-out: IC50 NMDA, antagonism of cortical wedge depolarization
Protocol: as §2

AMPA receptor [6] = assay: Antagonism of AMPA-induced depolarization of rat cortical wedges; type: cell-based; settings: for selective AMPA receptor antagonism (in words): cortical wedge; for IC50: AMPA 40 μM, mean ± standard error (n = 3), read-out: IC50 AMPA, antagonism of cortical wedge depolarization
Protocol: as §2

[7] = Table I, racemic, [^3 H]AMPA 5 nM, 100 mM KSCN, mean ± standard error (n = 3), values marked ^c single experiment, read-out: IC50 AMPA, receptor binding
[8] = text summary of Table I, racemic, read-out: selectively displaced ^3 H-AMPA with IC50 values
[9] = Table II, enantiopure, [^3 H]AMPA 5 nM, 100 mM KSCN, mean ± standard error (n = 3), values marked ^c single experiment, read-out: IC50 AMPA, receptor binding

SMILES	IC50 (AMPA receptor [1]; [7])	IC50 (NMDA receptor [2]; Table I, racemic)	IC50 KA, receptor binding ([3]; Table I, racemic)	IC50 KA, antagonism of cortical wedge depolarization ([4]; Table III, racemic)	IC50 (NMDA receptor [5]; Table III, racemic)	IC50 (AMPA receptor [6]; Table III, racemic)	further results
O=CN(Cc1nnn[nH]1)[C@H]1CC[C@H]2CN[C@H](C(=O)O)C[C@@H]2C1 (racemic) [Compound 3, (3SR,4aRS,6SR,8aRS)-6-[N-(1(2)H-Tetrazole-5-yl)methylformamido]-decahydroisoquinoline-3-carboxylic Acid]	29.1 µM	> 100 µM	> 100 µM	–	–	–	–
O=C(O)[C@@H]1C[C@H]2C[C@@H](CSc3nnn[nH]3)CC[C@H]2CN1 (racemic) [Compound 4, (3SR,4aRS,6SR,8aRS)-6-[2-(1(2)H-Tetrazole-5-yl)-2-thiaethyl]decahydroisoquinoline-3-carboxylic Acid]	0.9 ± 0.14 µM	29.4 ± 6.8 µM	30.1 ± 1.6 µM	> 100 µM	> 100 µM	3.3 ± 0.9 µM	IC50 (AMPA receptor [1]; [8]): < 15 µM; selective AMPA receptor antagonism (in words) (AMPA receptor [6]; Table III, racemic): selective AMPA receptor antagonists
O=C(O)[C@@H]1C[C@H]2C[C@H](CSc3nnn[nH]3)CC[C@H]2CN1 (racemic) [Compound 5, (3SR,4aRS,6RS,8aRS)-6-[2-(1(2)H-Tetrazole-5-yl)-2-thiaethyl]decahydroisoquinoline-3-carboxylic Acid]	4.9 ± 0.4 µM	47.9 ± 3.9 µM	37.3 ± 2.3 µM	> 100 µM	> 100 µM	6.1 ± 1.5 µM	IC50 (AMPA receptor [1]; [8]): < 15 µM; selective AMPA receptor antagonism (in words) (AMPA receptor [6]; Table III, racemic): selective AMPA receptor antagonists
O=C(O)[C@@H]1C[C@H]2C[C@@H](CCCc3nnn[nH]3)CC[C@H]2CN1 (racemic) [Compound 6, (3SR,4aRS,6SR,8aRS)-6-[(1(2)H-Tetrazole-5-yl)prop-1-yl]decahydroisoquinoline-3-carboxylic Acid]	16.8 ± 0.46 µM	27 ± 9.9 µM	18.65 ± 0.33 µM	–	–	22 ± 3.8 µM	–
O=C(O)[C@@H]1C[C@H]2C[C@@H](COCc3nnn[nH]3)CC[C@H]2CN1 (racemic) [Compound 7, (3SR,4aRS,6SR,8aRS)-6-[(1(2)H-Tetrazole-5-yl)methoxymethyl]decahydroisoquinoline-3-carboxylic Acid]	> 10 µM	> 10 µM	> 10 µM	> 100 µM	> 100 µM	16 ± 1.4 µM	–
O=C(O)[C@@H]1C[C@H]2C[C@H](CCSc3nnn[nH]3)CC[C@H]2CN1 (racemic) [Compound 8, (3SR,4aRS,6RS,8aRS)-6-[3-(1(2)H-Tetrazole-5-yl)-3-thiaprop-1-yl]decahydroisoquinoline-3-carboxylic Acid]	10.6 ± 2 µM	49.2 ± 1.86 µM	28.76 ± 2.21 µM	18.1 ± 5.1 µM	> 100 µM	6.8 ± 1.5 µM	–
O=C(O)[C@@H]1C[C@H]2C[C@@H](CCSc3nnn[nH]3)CC[C@H]2CN1 (racemic) [Compound 9, (3SR,4aRS,6SR,8aRS)-6-[3-(1(2)H-Tetrazole-5-yl)-3-thiaprop-1-yl]decahydroisoquinoline-3-carboxylic Acid]	56.2 ± 4.6 µM	> 100 µM	> 100 µM	> 100 µM	> 100 µM	32.2 ± 1.7 µM	–
O=C(O)[C@@H]1C[C@H]2C[C@@H](CCCCc3nnn[nH]3)CC[C@H]2CN1 (racemic) [Compound 10, (3SR,4aRS,6SR,8aRS)-6-[(1(2)H-Tetrazole-5-yl)but-1-yl]decahydroisoquinoline-3-carboxylic Acid]	32 µM	> 100 µM	> 100 µM	–	> 100 µM	27.6 ± 3.1 µM	–
O=C(O)CC[C@H]1CC[C@H]2CN[C@H](C(=O)O)C[C@H]2C1 (racemic) [Compound 11, (3SR,4aRS,6RS,8aRS)-6-(2-Carboxyethyl)-decahydroisoquinoline-3-carboxylic Acid]	27.8 ± 0.6 µM	43.9 ± 4.1 µM	> 100 µM	> 100 µM	57 ± 4.4 µM	42 ± 6.5 µM	–
O=C(O)[C@@H]1C[C@H]2C[C@@H](CCc3nn[nH]n3)CC[C@H]2CN1 (relative stereo) [Compound 1, (3 SR,4aRS,6RS,8aRS)-6-[2-(1(2)H-Tetrazole-5-yl)ethyl]decahydroisoquinoline-3-carboxylic Acid]	–	26.4 ± 1.95 µM	246.98 ± 7.5 µM	31.7 ± 4.4 µM	61.3 ± 3 µM	6 ± 1 µM	–
O=C(O)[C@@H]1C[C@H]2C[C@H](CCc3nn[nH]n3)CC[C@H]2CN1 (relative stereo) [Compound 2, (3SR,4aRS,6SR,8aRS)-6-[2-(1(2)H-Tetrazole-5-yl)ethyl]decahydroisoquinoline-3-carboxylic Acid]	59.6 ± 4.3 µM	60.6 ± 24.8 µM	180.0 ± 22.1 µM	–	> 100 µM	–	–
CS(=O)(=O)NC(=O)CC[C@H]1CC[C@H]2CN[C@H](C(=O)O)C[C@H]2C1 (relative stereo) [Compound 16, (3SR,4aRS,6RS,8aRS)-6-[2-((N-Methanesulfonyl)carboxamido)ethyl]decahydroisoquinoline-3-carboxylic Acid]	80 µM	> 100 µM	> 100 µM	–	–	–	–
O=C(CC[C@H]1CC[C@H]2CN[C@H](C(=O)O)C[C@H]2C1)Nc1nn[nH]n1 (relative stereo) [Compound 17, (3SR,4aRS,6RS,8aRS)-6-[2-(N-(1(2)H-Tetrazole-5-yl)carboxamido)ethyl]decahydroisoquinoline-3-carboxylic Acid]	45.7 µM	> 100 µM	> 100 µM	–	–	–	–
CC(Cc1nn[nH]n1)[C@H]1CC[C@H]2CN[C@H](C(=O)O)C[C@H]2C1 (stereo partly drawn) [Compound 18, (3SR,4aRS,6RS,8aRS)-6-[2-(1(2)H-Tetrazole-5-yl)-1-methylethyl]decahydroisoquinoline-3-carboxylic Acid]	3.37 µM	43.1 µM	28.2 µM	–	–	–	IC50 (AMPA receptor [1]; [8]): < 15 µM
O=C(O)[C@@H]1C[C@H]2C[C@H](CCc3nn[nH]n3)CC[C@H]2CN1 [Compound 22, (3S,4aR,6S,8a,R)-6-[2-(1(2)H-Tetrazole-5-yl)ethyl]decahydroisoquinoline-3-carboxylic Acid]	–	–	–	–	–	–	IC50 (AMPA receptor [1]; [9]): 15.3 µM; IC50 KA, antagonism of cortical wedge depolarization ([4]; Table IV, enantiopure): 28.9 ± 9.2 µM; IC50 (NMDA receptor [5]; Table IV, enantiopure): > 100 µM; IC50 (AMPA receptor [6]; Table IV, enantiopure): 21.9 ± 3.3 µM; IC50 KA, receptor binding ([3]; Table II, enantiopure): 85.3 µM
O=C(O)[C@@H]1C[C@H]2C[C@@H](CS(=O)(=O)c3nc[nH]n3)CC[C@H]2CN1 [Compound 26, (3S,4aR,6S,8aR)-6-[(1(2-4)H-1,2,4-Triazole-5-yl)sulfonylmethyl]decahydroisoquinoline-3-carboxylic Acid]	–	–	–	–	–	–	IC50 (AMPA receptor [1]; [9]): 0.63 µM; IC50 (NMDA receptor [2]; Table II, enantiopure): > 100 µM; IC50 KA, receptor binding ([3]; Table II, enantiopure): > 100 µM
O=C(O)[C@H]1C[C@@H]2C[C@H](CS(=O)(=O)c3nc[nH]n3)CC[C@@H]2CN1 [Compound 27, (3R,4aS,6R,8aS)-6-[(1(2-4)H-1,2,4-Triazole-5-yl)sulfonylmethyl]decahydroisoquinoline-3-carboxylic Acid]	–	–	–	–	–	–	IC50 (AMPA receptor [1]; [9]): 23.6 µM; IC50 (NMDA receptor [2]; Table II, enantiopure): 60.9 µM; IC50 KA, receptor binding ([3]; Table II, enantiopure): > 100 µM
